Results taken from US8026342B2, “Compositions and methods for binding sphingosine-1-phosphate” (Lpath, Inc., priority 2006, dated 2011).

B1: LT1002: murine anti-S1P monoclonal antibody, IgG1 kappa, from hybridoma clone 306D326.26 (antibody, listed as Mus sp., V domains shown)
VH: QAHLQQSDAELVKPGASVKISCKVSGFIFIDHTIHWMKQRPEQGLEWIGCISPRHDITKYNEMFRGKATLTADKSSTTAYIQVNSLTFEDSAVYFCARGGFYGSTIWFDFWGQGTTLTVS
VL: ETTVTQSPASLSMAIGEKVTIRCITTTDIDDDMNWFQQKPGEPPNLLISEGNILRPGVPSRFSSSGYGTDFLFTIENMLSEDVADYYCLQSDNLPFTFGSGTKLEIK

Columns and labels:
retinal macrophages = test: Oxygen induced retinopathy (ROP) model: retinal macrophage infiltration; format: in vivo, C57BL/6 mice; settings: 5 μg intraocular at day 12, read at day 17
Experimental: At day 17 of life, the mice received an intraocular injection of FITC-labeled antibody to F4/80 (a pan-macrophage marker) and after 8 hours, mice were euthanized. The globes were removed and fixed in PBS-buffered formalin at room temperature for 5 hours. Retinas were dissected and washed with phosphate-buffered saline containing 0.25% Triton X-100 and whole mounted. Slides were viewed with a Nikon Fluorescence Microscope and retinal macrophages were quantified.

HT29 tumor = test: SC HT29 colorectal tumor xenograft; format: in vivo, athymic NCr-nu/nu mice; settings: LT1009 50 mg/kg ip q2d; Avastin 20 mg/kg iv q4d; 5-FU 75 mg/kg ip q4d
Experimental: Nude mice were implanted sc near the right flank with one fragment per mouse of HT29 tumor from an in vivo passage. All treatments were initiated the day when 60 mice in each experiment established tumors ranging in size from approximately 100 to 200 mm^3. There were ten mice per treatment group. […] 75 mg/kg 5-FU and 20 mg/kg Avastin were administered ip and iv at a dosage of 75 mg/kg/dose and 20 mg/kg/dose, respectively, q4d, injected in a volume of 0.1 mL/10 g body weight.
Animals were observed daily for mortality. Tumor dimensions and body weights were collected twice weekly starting with the first day of treatment and including the day of study termination. When the median tumor in the vehicle-treated control group in each study reached approximately 4,000 mg, the study was terminated. Tumors from each animal were harvested, wet weights were recorded, and tumors were processed for determination of MVD by CD-31 staining. Tumor weights (mg) were calculated using the equation for an ellipsoid sphere (l×w^2)/2=mm^3, where l and w refer to the larger and smaller dimensions collected at each measurement and assuming unit density (1 mm^3=1 mg).

CNV lesions = test: Sonepcizumab dose response in laser CNV model (fluorescein-labeled dextran); format: in vivo, mice
Experimental: Mice (n=10) received a single, bilateral intravitreal injection of escalating doses of sonepcizumab (0.085, 0.85, 1.7 or 5 μg/eye) or a high dose nonspecific (NS) antibody (3.0 μg/eye) one day prior to laser-induced rupture of Bruch's membrane. Fourteen days after laser rupture, mice were anesthetized and perfused with fluorescein-labeled dextran and choroidal flatmounts were prepared for analysis of CNV lesion size.
In this study, the effect of sonepcizumab dose amount and dose interval on CNV inhibition were examined using another validated method of quantifying CNV area in which animals were perfused with fluorescein-labeled dextran just before sacrifice. Sonepcizumab induced a dose-dependent reduction in the area of CNV resulting in a maximal inhibition of approximately 50%, at a dose of 5 μg/eye. This reduction was significant (p<0.0001 compared to non-specific antibody control using an unpaired t-test). In the dosing frequency study, similar efficacy was observed between groups treated with Sonepcizumab at a single timepoint (day 0) or at multiple timepoints (days 0 and 7) over the 14-day study.

[1] = Circular dichroism thermal denaturation of LT1009; format: physicochemical
Experimental: Circular dichroism spectroscopy was performed separately from the formulation studies. An Aviv 202 CD spectrophotometer was used to perform these analyses. Near UV CD spectra were collected from 400 nm to 250 nm. In this region, the disulfides and aromatic side chains contribute to the CD signals. In the far UV wavelength region (250-190 nm), the spectra are dominated by the peptide backbone. Thermal denaturation curves were generated by monitoring at 205 nm, a wavelength commonly used for b-sheet proteins. Data was collected using 0.1 mg/ml samples with heating from 25° C. to 85° C. Data were collected in 1° C. increments. The total time for such a denaturation scan was between 70 and 90 minutes. The averaging time was 2 seconds.

[2] = BIAcore binding of murine anti-S1P mAb to S1P immobilized on chip; settings: read-out: affinity (Kd) for S1P
Experimental: Binding kinetics: The binding kinetics of S1P to its receptor or other moieties has, traditionally, been problematic because of the nature of lipids. Many problems have been associated with the insolubility of lipids. For BIAcore measurements, these problems were overcome by directly immobilizing S1P to a BIAcore chip. Antibody was then flowed over the surface of the chip and alterations in […] were measured to determine the binding characteristics of the antibody to S1P. To circumvent the bivalent binding nature of antibodies, S1P was coated on the chip at low densities. Additionally, the chip was coated with various densities of S1P (7, 20, and 1000 RU) and antibody binding data was globally fit to a 1:1 interaction model.

[3] = Thermochallenge stability of antibody variants (TM); format: physicochemical
Experimental: iii. Stability. The humanized variants were tested for stability after challenge at high temperature. The approximate midpoints of the thermal unfolding transitions (TM) were determined for every humanized variant by subjecting the supernatants to temperatures ranging from 60 to 74° C. […] The binding properties of each variant were determined before and after thermochallenge.

[4] = tested on: cardiac scar formation / immune-cell wound infiltration; test: Permanent myocardial infarction murine model (fibrosis, immune cell infiltration); format: in vivo, mice
Experimental: SPHINGOMAB reduced immune-cell wound infiltration in vivo. Mice were subjected to MI, treated with saline or 25 mg/kg SPHINGOMAB 48 hr. after surgery and then sacrificed on day 4. SPHINGOMAB reduced macrophage (A) and mast cell (B) infiltration into the wound. Data are represented as fold decrease of saline-treated values.
Studies evaluated the efficacy of SPHINGOMAB to reduce cardiac scar formation after permanent myocardial infarction (MI) via ligation of the left descending coronary artery in mice. Systemic administration of 25 mg/kg SPHINGOMAB or saline was initiated 48 hrs after surgery. Antibody administration at 48 hr. was chosen to allow normal, reparative scar formation to occur during the early remodeling phase and permit beneficial, S1P-stimulated angiogenesis immediately after the MI. Two weeks after the infarct, mice were sacrificed and fibrosis was accessed by Masson's trichrome staining of the cardiac tissue. […] As a control for any non-specific wound-healing responses, sham animals underwent thoracotomy without coronary artery ligation (FIG. 7E).
Based upon the similarities of immune and inflammatory responses in CNV and CVD, the efficacy of SPHINGOMAB to mitigate immune cell infiltration into a wound was evaluated in a murine infarct model as an indication of SPHINGOMAB's potential effects in mitigating these damages during AMD [Vine, et al. (2005), Ophthalmology., vol 112: 2076-80; and Seddon and Chen (2004), Int Ophthalmol Clin., vol 44: 17-39]. Four days post-MI, macrophage and mast cell infiltration was evaluated using MAC-1 and MCG35 antibodies, respectively, within the area at risk.

Row | Molecule | # of macrophages per retina (retinal macrophages) | % reduction in macrophage density (retinal macrophages) [%] | % reduction in macrophage density (retinal macrophages; listed as S1P antibody) [%] | % Reduction compared to Vehicle-Treated Mice (HT29 tumor) [%] | Final Tumor Weights (HT29 tumor) [mg] | maximal inhibition of CNV area (CNV lesions; 5 μg/eye single intravitreal, 14 days) | reduction in CNV lesion size greater than that observed with the VEGF-Trap (CNV lesions; comparison of two independent studies, VEGF-Trap 4.92 μg/eye (Saishin et al.)) [percentage points] | apparent Tm ([1]; pH 6.0) | apparent Tm ([1]; pH 7.2) | Kd [2] [nM] | TM (approximate midpoint of thermal unfolding transition) [3] [°C] | perivascular fibrosis ([4]; 25 mg/kg from 48 hrs after surgery, two weeks after infarct) | density of inflammatory macrophages ([4]; four days post-MI) | density of mast cells ([4]; four days post-MI)
1 | LT1009: humanized anti-S1P IgG1/kappa mAb with Cys to Ala in HCDR2, light chain with 5 backmutations; SEQ ID NO: 31/32 | 1136 ± 33 | 55 | 55.4 ± 1.3 | 13 | 2390.63 | approximately 50% | 20 | about 77 °C | approximately 73 °C | – | – | – | – | –
2 | B1 | – | – | – | – | – | – | – | – | – | < 0.1 | 65 | almost complete abrogation | dramatically attenuated | dramatically attenuated
